Laboratory results reported in article PMC6944674, “Comparison of the Hepatotoxic Potential of Two Treatments for Autosomal-Dominant Polycystic Kidney DiseaseUsing Quantitative Systems Toxicology Modeling” (Pharmaceutical Research, 2020).

How the values were obtained:
[1] = molecular target: T1, MRP3 and MRP4 (basolateral transport) (Homo sapiens, UniProt O15439); assay: Basolateral inhibition constant: lowest IC50 of the MRP3 and MRP4 vesicular assays; format: biochemical; conditions: membrane vesicles (vesicular transport assay), lowest IC50 of the experimentally derived MRP3 and MRP4 IC50 values
T1 sequence (O15439 1-1325): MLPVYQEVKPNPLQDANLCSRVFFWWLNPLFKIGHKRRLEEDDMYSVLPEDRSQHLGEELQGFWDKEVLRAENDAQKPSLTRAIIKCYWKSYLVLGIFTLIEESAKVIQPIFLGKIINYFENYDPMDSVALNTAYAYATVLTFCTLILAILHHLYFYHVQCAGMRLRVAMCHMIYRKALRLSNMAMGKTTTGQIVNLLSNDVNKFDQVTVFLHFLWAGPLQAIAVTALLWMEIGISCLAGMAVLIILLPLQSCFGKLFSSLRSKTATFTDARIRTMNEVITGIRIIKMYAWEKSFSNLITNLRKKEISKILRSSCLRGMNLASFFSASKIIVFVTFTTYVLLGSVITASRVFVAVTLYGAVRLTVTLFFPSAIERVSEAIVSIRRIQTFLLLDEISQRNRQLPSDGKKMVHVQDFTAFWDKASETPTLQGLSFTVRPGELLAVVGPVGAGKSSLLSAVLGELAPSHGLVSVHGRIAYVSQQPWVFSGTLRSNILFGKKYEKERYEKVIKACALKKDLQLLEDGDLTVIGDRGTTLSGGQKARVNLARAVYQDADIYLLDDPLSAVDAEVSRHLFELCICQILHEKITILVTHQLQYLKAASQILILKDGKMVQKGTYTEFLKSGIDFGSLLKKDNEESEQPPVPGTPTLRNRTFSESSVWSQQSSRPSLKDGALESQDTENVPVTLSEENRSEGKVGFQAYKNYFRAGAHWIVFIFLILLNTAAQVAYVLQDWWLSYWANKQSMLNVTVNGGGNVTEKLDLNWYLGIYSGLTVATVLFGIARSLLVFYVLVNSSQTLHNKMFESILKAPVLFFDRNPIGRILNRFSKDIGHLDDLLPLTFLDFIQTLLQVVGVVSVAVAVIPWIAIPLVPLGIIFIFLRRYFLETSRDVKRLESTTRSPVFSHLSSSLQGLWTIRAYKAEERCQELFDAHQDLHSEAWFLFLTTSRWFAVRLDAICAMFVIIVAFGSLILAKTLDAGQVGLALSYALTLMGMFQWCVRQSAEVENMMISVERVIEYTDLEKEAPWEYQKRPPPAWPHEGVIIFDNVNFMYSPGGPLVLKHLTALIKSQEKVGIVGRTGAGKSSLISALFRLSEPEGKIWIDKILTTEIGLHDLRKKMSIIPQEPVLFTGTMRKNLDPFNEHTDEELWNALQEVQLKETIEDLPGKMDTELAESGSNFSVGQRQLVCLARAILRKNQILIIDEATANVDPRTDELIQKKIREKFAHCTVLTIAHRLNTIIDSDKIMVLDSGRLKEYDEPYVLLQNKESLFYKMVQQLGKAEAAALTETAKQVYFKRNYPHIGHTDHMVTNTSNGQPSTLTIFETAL
Procedure: The functional impact of lixivaptan, its three metabolites and tolvaptan on the human ABC (efflux) transporters BSEP and MRP3 and MRP4 was assessed for this project using in vitro vesicular transport inhibition assays. The inhibition of the human SLC (uptake) transporter NTCP was assessed using CHO cells stably expressing human NTCP. The concentration ranges used for the five test articles was determined based on the solubility of each compound in the assay solution. All transporter inhibition assays were conducted in triplicate by Solvo Biotechnology (Szeged, Hungary). For the simulation of bile acid transporter inhibition by lixivaptan in […], parameter values were selected for BSEP canalicular transport, basolateral transport (encompassing both MRP3 and MRP4), and NTCP transport. The parameter values for each include the inhibition constant, defined as the IC50 or Ki value, and the inhibition type, defined as competitive, non-competitive, or mixed inhibition.

[2] = Intracellular concentration by LC/MS/MS in HepG2 cultures parallel to ROS high-content screening; format: in vitro ADME; conditions: human, HepG2 cells, High content screening medium
Procedure: (§1) To assess the intracellular concentration of lixivaptan and its metabolites, an identical HepG2 culture was established in parallel and cell lysate concentrations of each test article were measured by LC/MS/MS analysis. Intracellular concentrations of the compounds were calculated by correcting for cell lysate volume (100 µL) and the volume of HepG2 cells in each well, which was calculated by multiplying cell count per well by cellular volume per cell (2.85 pl/cell for HepG2). One independent study in triplicate was conducted to assess intracellular concentrations of the test articles for the ROS (high-content imaging) studies.

[3] = system: HepG2 cells; assay: as above; format: in vitro ADME; conditions: High content screening medium; for CIntracellular Fraction: cell lysate
Procedure: as §1

[4] = molecular target: T2, human NTCP (Homo sapiens, UniProt Q14973); assay: NTCP inhibition in CHO cells stably expressing human NTCP (taurocholate); format: cell-based
T2 sequence (Q14973 1-349): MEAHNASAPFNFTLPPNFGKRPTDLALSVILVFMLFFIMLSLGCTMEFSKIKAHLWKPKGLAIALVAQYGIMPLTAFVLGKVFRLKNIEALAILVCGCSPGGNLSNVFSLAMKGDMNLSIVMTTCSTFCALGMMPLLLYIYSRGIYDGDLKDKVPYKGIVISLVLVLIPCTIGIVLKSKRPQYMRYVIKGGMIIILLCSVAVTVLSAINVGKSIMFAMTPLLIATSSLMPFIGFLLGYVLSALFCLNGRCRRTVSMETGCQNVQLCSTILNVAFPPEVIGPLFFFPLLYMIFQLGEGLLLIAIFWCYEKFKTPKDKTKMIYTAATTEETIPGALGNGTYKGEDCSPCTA
Procedure: The functional impact of lixivaptan, its three metabolites and tolvaptan on the human ABC (efflux) transporters BSEP and MRP3 and MRP4 was assessed for this project using in vitro vesicular transport inhibition assays. The inhibition of the human SLC (uptake) transporter NTCP was assessed using CHO cells stably expressing human NTCP. The concentration ranges used for the five test articles was determined based on the solubility of each compound in the assay solution. All transporter inhibition assays were conducted in triplicate by Solvo Biotechnology (Szeged, Hungary).
Figure B4. […] See Appendix A for more details.

IC50 [1]: 70 µM | Kp at 5 µM ([2]; dose 5 µM): 17.6 ± 18.4 | Kp at 10 µM ([2]; dose 10 µM): 39.7 ± 6.49 | Kp at 25 µM ([2]; dose 25 µM): 19.9 ± 4.54 | Kp at 40 µM ([2]; dose 40 µM): 12.9 ± 2.68 | CExtracellular Fraction ([3]; dose 0.01 µM): 0.000 ± 0.000 µM | CHepatocyte ([3]; dose 0.01 µM): 0.000 ± 0.000 µM | CIntracellular Fraction ([3]; dose 0.01 µM): 0.000 ± 0.000 µM | CExtracellular Fraction ([3]; dose 0.1 µM): 0.001 ± 0.001 µM | CHepatocyte ([3]; dose 0.1 µM): 0.000 ± 0.000 µM | CIntracellular Fraction ([3]; dose 0.1 µM): 0.000 ± 0.000 µM | CExtracellular Fraction ([3]; dose 0.5 µM): 0.020 ± 0.001 µM | CHepatocyte ([3]; dose 0.5 µM): 0.000 ± 0.000 µM | CIntracellular Fraction ([3]; dose 0.5 µM): 0.000 ± 0.000 µM | CExtracellular Fraction ([3]; dose 1 µM): 0.047 ± 0.001 µM | CHepatocyte ([3]; dose 1 µM): 0.000 ± 0.000 µM | CIntracellular Fraction ([3]; dose 1 µM): 0.000 ± 0.000 µM | CExtracellular Fraction ([3]; dose 5 µM): 0.345 ± 0.011 µM | CHepatocyte ([3]; dose 5 µM): 6.02 ± 6.30 µM | CIntracellular Fraction ([3]; dose 5 µM): 0.0013 ± 0.0016 µM | CExtracellular Fraction ([3]; dose 10 µM): 0.736 ± 0.055 µM | CHepatocyte ([3]; dose 10 µM): 28.44 ± 5.12 µM | CIntracellular Fraction ([3]; dose 10 µM): 0.0054 ± 0.0032 µM | CExtracellular Fraction ([3]; dose 25 µM): 2.751 ± 0.143 µM | CHepatocyte ([3]; dose 25 µM): 55.57 ± 15.10 µM | CIntracellular Fraction ([3]; dose 25 µM): 0.0093 ± 0.0055 µM | CExtracellular Fraction ([3]; dose 40 µM): 5.773 ± 0.508 µM | CHepatocyte ([3]; dose 40 µM): 71.75 ± 11.05 µM | CIntracellular Fraction ([3]; dose 40 µM): 0.0114 ± 0.0058 µM | inhibition of NTCP-mediated probe substrate accumulation ([4]; CHO cells): observed | IC50 ([4]; read-out: NTCP inhibition constant (IC50)): 19 µM
SMILES: Cc1ccc(F)cc1C(=O)Nc1ccc(C(=O)N2Cc3cccn3Cc3ccccc32)c(Cl)c1 [Lixivaptan, lixivaptan]
